# Test results published in ChEMBL document CHEMBL1144500, “Design and synthesis of Rho kinase inhibitors (II)” (Bioorg Med Chem, 2007).
# System: not listed separately
# Assay: Solubility in 0.086N HCl containing 34 mM NaCl
# Format: physicochemical
row,Structure (SMILES),solubility [µg/mL]
1,c1ccc(CN2CCC(Nc3ccc4[nH]ncc4c3)CC2)cc1,881
2,O=C(NCc1c(F)cccc1F)Nc1ccc2[nH]ncc2c1,5

# System: not listed separately
# Assay: Solubility in water
# Format: physicochemical
row,Structure (SMILES),solubility [µg/mL]
1,c1ccc(CN2CCC(Nc3ccc4[nH]ncc4c3)CC2)cc1,794
2,O=C(NCc1c(F)cccc1F)Nc1ccc2[nH]ncc2c1,5

# System: not listed separately
# Assay: Solubility in 50 mM KH2PO4 containing 24 mM NaOH
# Format: physicochemical
row,Structure (SMILES),solubility [µg/mL]
1,c1ccc(CN2CCC(Nc3ccc4[nH]ncc4c3)CC2)cc1,495
2,O=C(NCc1c(F)cccc1F)Nc1ccc2[nH]ncc2c1,< 1

# Molecular target: Rho-associated protein kinase (Homo sapiens, UniProt O75116+Q13464)
row,Structure (SMILES),IC50 [nM]
1,CCCN1CCCC(Nc2ccc3[nH]ncc3c2)C1 (stereo not drawn),780
2,O=C(NC1CCN(Cc2ccccc2)CC1)c1ccc2[nH]ncc2c1,540
3,c1ccc(CN[C@H]2CC[C@H](Nc3ccc4[nH]ncc4c3)CC2)cc1,520
4,CN(CCNc1ccc2[nH]ncc2c1)Cc1ccccc1,7900
5,Fc1ccc(CN2CCC(CNc3ccc4[nH]ncc4c3)CC2)cc1,> 10000
6,Cn1ncc2cc(NC3CCCN(Cc4ccccc4)C3)ccc21 (stereo not drawn),> 10000
7,c1c[nH]c(CN2CCCC(Nc3ccc4[nH]ncc4c3)C2)c1 (stereo not drawn),11
8,Clc1ccccc1CN1CCC(Nc2ccc3[nH]ncc3c2)CC1,440
9,c1ccc(CN2CCCC(Nc3ccc4[nH]ncc4c3)C2)nc1 (stereo not drawn),240
10,c1cncc(CN2CCCC(Nc3ccc4[nH]ncc4c3)C2)c1 (stereo not drawn),72
11,O=C(NCc1ccc(Cl)cc1Cl)Nc1ccc2[nH]ncc2c1,220
12,c1coc(CN2CCCC(Nc3ccc4[nH]ncc4c3)C2)c1 (stereo not drawn),65
13,c1cc(CN2CCCC(Nc3ccc4[nH]ncc4c3)C2)co1 (stereo not drawn),180
14,O=C(NCc1c(Cl)cccc1Cl)Nc1ccc2[nH]ncc2c1,20
15,O=C(Nc1ccc2[nH]ncc2c1)NC1CCN(Cc2ccccc2)CC1,> 10000
16,O=C(NCc1ccccc1)Nc1ccc2[nH]ncc2c1,260
17,c1ccc(CN2CCC(Oc3ccc4[nH]ncc4c3)CC2)cc1,100
18,O=C(NCc1c(F)cccc1F)Nc1ccc2[nH]ncc2c1,85
19,c1ccc(CN2CCCC(Oc3ccc4[nH]ncc4c3)C2)cc1 (stereo not drawn),10
20,c1ccc(CN[C@H]2CC[C@@H](Nc3ccc4[nH]ncc4c3)CC2)cc1,320
21,O=C(Nc1ccc2[nH]ncc2c1)C1CCCN(Cc2ccccc2)C1 (stereo not drawn),18
22,O=C(Nc1ccc2[nH]ncc2c1)C1CCN(Cc2ccccc2)CC1,136
23,CC(C)CCN1CCCC(Nc2ccc3[nH]ncc3c2)C1 (stereo not drawn),340

# Other lines, results leading:
row,IC50 [nM],Structure (SMILES)
1,> 1000,c1cc(CN2CCCC(Nc3ccc4[nH]ncc4c3)C2)c[nH]1 (stereo not drawn)
2,25,Fc1ccc(CN2CCCC(Nc3ccc4[nH]ncc4c3)C2)cc1 (stereo not drawn)
3,10,Fc1ccc(CN2CCCC(Nc3ccc4[nH]ncc4c3)C2)cc1F (stereo not drawn)
4,10,Nc1ccc(CN2CCCC(Nc3ccc4[nH]ncc4c3)C2)cc1 (stereo not drawn)
5,290,Clc1cccc(CN2CCC(Nc3ccc4[nH]ncc4c3)CC2)c1
6,20,c1ccc(CN2CCCC(Nc3ccc4[nH]ncc4c3)C2)cc1 (stereo not drawn)
7,290,Clc1ccc(CN2CCC(Nc3ccc4[nH]ncc4c3)CC2)cc1
8,16,COc1ccc(CN2CCCC(Nc3ccc4[nH]ncc4c3)C2)cc1 (stereo not drawn)
9,150,Cc1n[nH]c2ccc(NC3CCCN(Cc4ccccc4)C3)cc12 (stereo not drawn)
10,32,c1ccc(CN2CCC(Nc3ccc4[nH]ncc4c3)C2)cc1 (stereo not drawn)
11,9,Cc1ccc(CN2CCCC(Nc3ccc4[nH]ncc4c3)C2)cc1 (stereo not drawn)
12,45,Clc1ccccc1CN1CCC(Nc2ccc3[nH]ncc3c2)C1 (stereo not drawn)
13,19,Clc1cccc(CN2CCCC(Nc3ccc4[nH]ncc4c3)C2)c1 (stereo not drawn)
14,80,COc1cc(CN2CCCC(Nc3ccc4[nH]ncc4c3)C2)cc(OC)c1 (stereo not drawn)
15,87,O=[N+]([O-])c1ccc(CN2CCCC(Nc3ccc4[nH]ncc4c3)C2)cc1 (stereo not drawn)
16,35,Nc1cccc(CN2CCCC(Nc3ccc4[nH]ncc4c3)C2)c1 (stereo not drawn)
17,13,Clc1ccccc1CN1CCCC(Nc2ccc3[nH]ncc3c2)C1 (stereo not drawn)
18,11,Clc1ccc(CN2CCCC(Nc3ccc4[nH]ncc4c3)C2)cc1 (stereo not drawn)
19,85,Nc1ccccc1CN1CCCC(Nc2ccc3[nH]ncc3c2)C1 (stereo not drawn)
